What was measured:
[1] = test system: calf thymus histones; assay: Inhibition of histone killing of HMEC (flow cytometry, Calcein-AM/PI); assay type: cell-based; settings: for inhibitory activity on histone toxicity (in words) / % histone killing ± SEM: HMEC; for inhibitory activity on histone toxicity (in words): Table 1 discussion; for % histone killing ± SEM: compounds at 50 μg/ml, calf thymus histones 400 μg/ml; for inhibition of cytotoxic effects of histones for HMEC: histones 400 μg/ml
Method: (§1) Different concentrations of calf thymus histones were initially assessed for their toxicity for human umbilical vein endothelial cells (HUVEC) and human microvascular endothelial cells (HMEC). Suspensions of HUVEC/HMEC in Medium199/20% fetal calf serum (FCS) were dispensed into each well of a 96 well plate (1×10^5 cells/well in 50 μl of medium). Calf thymus histones (50 μl/well in M199/20% FCS) were then added to give a final concentration of 100-800 μg/ml followed by 25 μl/well of Calcein-AM in PBS (final concentration 0.04 μM) and 25 propidium iodide (PI) in PBS (final concentration 2.5 μg/ml). Each 96 well plate was incubated at 37° C. for 60 min in a 5% CO2 incubator, placed on ice and the contents of each well analysed by flow cytometry for viable and dead cells. Viable cells were detected as Calcein-AM-bright and PI-dim and dead cells as Calcein-AM-dim and PI-bright. FIG. 1 depicts a typical viability assay comparing HUVEC cultured alone (9.15% dead, 78.6% viable) with HUVEC cultured for 60 min with 200 μg/ml of calf thymus histones (50.4% dead, 35.6% viable). The toxicity of calf thymus histones for HUVEC and HMEC is shown in detail in FIG. 2, with histone toxicity for HUVEC (FIG. 2A) and HMEC (FIG. 2B) being highly concentration dependent, although HMEC were more resistant to histone toxicity than HUVEC. Thus, at 100 μg/ml histones killed 15-20% of HUVEC but had no effect on HMEC viability, whereas at 800 μg/ml histones killed >85% of HUVEC and ˜55% of HMEC (FIG. 1). In subsequent inhibition experiments calf thymus histones were used at 200 μg/ml for HUVEC and 400 μg/ml for HMEC, these concentrations resulting in ˜50% killing of both populations of endothelial cells.
In inhibition experiments the inhibitor (final concentration ranging from 1.6-100 μg/ml) was mixed with calf thymus histones (final concentration 200 or 400 μg/ml) prior to the addition of HUVEC/HMEC, Calcein-AM and PI to each well.
Using HMEC as the endothelial cell target similar inhibitory effects of maltotriose sulfate (FIG. 6) and the other sulfated oligosaccharides (Table 1) on histone toxicity was observed. In fact, a more detailed analysis of the inhibitory activity of a range of polyanions on histone toxicity, using HMEC as the target endothelial cell, is shown in Table 1.

[2] = test system: lipopolysaccharide (LPS)-induced mouse model of sepsis; assay: LPS-induced mouse model of sepsis; assay type: in vivo
Method: A study was conducted to assess in vivo efficacy of test articles 1 (maltotriose sulfate; TA1), 2 (cellobiose sulfate; TA2), and 3 (heparin; TA3) in a lipopolysaccharide (LPS)-induced mouse model of sepsis. Endotoxemia was induced by intraperitoneal (i.p.) injection with LPS on day 1. Test articles were co-administered i.p. on day 1, and then dosed daily i.p. for an additional 2 days.

[3] = test system: radiolabelled histones; assay: Blockade of radiolabelled histone accumulation in rabbit lungs (gamma scintigraphy); assay type: in vivo; settings: 15 mg/kg intravenously 15 minutes before radiolabel
[4] = test system: calf thymus histones; assay: Inhibition of histone cytotoxicity for HUVEC (flow cytometry, Calcein-AM/PI); assay type: cell-based; settings: inhibitor 1.6-100 μg/ml; histones 200 μg/ml
Method: as §1, with “Thus, at 100 μg/ml histones killed 15-20% of HUVEC but had no effect on HMEC viability, whereas at 800 μg/ml histones killed >85% of HUVEC and ˜55% of HMEC (FIG. 1). In subsequent inhibition experiments calf thymus histones were used at 200 μg/ml for HUVEC and 400 μg/ml for HMEC, these concentrations resulting in ˜50% killing of both populations of endothelial cells.” left out

[5] = 15 mg/kg i.p. daily x3, LPS 50 mg/kg
[6] = 15 mg/kg i.p. daily x3, with LPS
[7] = 100 mg/kg i.p. daily x3, with LPS

Compound	inhibitory activity on histone toxicity (in words) [1]	% histone killing ± SEM [1]	other results
O=S(=O)(O)OC[C@H]1O[C@@](COS(=O)(=O)O)(O[C@H]2O[C@H](COS(=O)(=O)O)[C@@H](OS(=O)(=O)O)[C@H](OS(=O)(=O)O)[C@H]2OS(=O)(=O)O)[C@@H](OS(=O)(=O)O)[C@@H]1OS(=O)(=O)O [Sucrose octasulfate, reference compound]	weaker inhibitors	43.5 ± 4.0%	
Carboxylated β-cyclodextrin	not	105.8 ± 19.9%	
Heparin [reference compound]	active		survival (Kaplan-Meier) ([2]; 1.1 mg/kg i.p. daily x3, LPS 50 mg/kg): no apparent change in the survival plot compared to the control; tolerability ([2]; 1.1 mg/kg i.p. daily x3, with LPS): well tolerated
Isomaltotriose sulfate [Isomaltotriose SO4]		49.5 ± 5.4%	
Propanyl bis-gluconamide SO4	some inhibitory activity	27.8 ± 1.5%	
cellobiose sulfate [Cellobiose SO4]	potent inhibitor		accumulation of radiolabelled histones in the lung [3]: blocked; survival (Kaplan-Meier) [2, 5]: extended survival; tolerability [2, 6]: well tolerated; survival (Kaplan-Meier) ([2]; 100 mg/kg i.p. daily x3, LPS 50 mg/kg): extended survival; tolerability [2, 7]: well tolerated
low molecular weight heparin [reference compound]	active		
maltose sulfate [Maltose SO4]	weaker inhibitors	77.1 ± 4.7%	inhibitory activity on histone cytotoxicity for HUVEC (in words) [4]: weak inhibitor
maltotriose sulfate [Maltotriose SO4]	more active than sulfated isomaltotriose		inhibition of cytotoxic effects of histones for HMEC ([1]; maltotriose sulfate 25 μg/ml): totally; inhibition of cytotoxic effects of histones for HMEC ([1]; maltotriose sulfate 100 μg/ml): partially; survival (Kaplan-Meier) [2, 5]: extended survival; tolerability [2, 6]: better tolerated; tolerability [2, 7]: appeared to produce some toxicity (cluster of deaths) after the third dose
panose sulfate [Panose SO4]	more active than sulfated isomaltotriose		
raffinose sulfate [Raffinose SO4]	more active than sulfated isomaltotriose		
sodium maltohexaose sulfate			accumulation of radiolabelled histones in the lung [3]: blocked
sodium maltotetraose sulfate			accumulation of radiolabelled histones in the lung [3]: blocked
β-cyclodextrin sulfate [β-cyclodextrin SO4]	active		inhibitory activity on histone cytotoxicity for HUVEC (in words) [4]: almost as active as the linear maltotriose sulfate and maltopentaose sulfate
